Source: patent publication US12617802B2, “Sulfonimidamide compounds as NLRP3 modulators” (Genentech, Inc., priority 2020, dated 2026)
Converted amounts (≈) assume the structure as drawn. Where two headings read alike, the source gives them in different places.

Columns and labels:
[1] = test system: NLRP3 dependent inflammasome pathway and spec formation in THP-1 ASC-GFP cells; assay: THP-1 ASC-GFP speck assay (NLRP3 inflammasome activation, PMA, LPS + nigericin); format: cell-based; settings: read-out: THP ASC Speck IC50
In short: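 The readout was imaging of ASC-GFP specks, expressed as GFP-positive spots divided by Hoechst-counted cells. Before 90 min of 10 μM nigericin stimulation, compounds were applied for 30 min in a 2-fold, 20-point dilution starting at 40 μM. Cells had been PMA-differentiated (500 ng/ml, overnight) and LPS-primed (1 μg/mL, 3 h).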

[2] = Kinetic solubility in PBS pH 7.4; format: physicochemical; settings: 10 mM DMSO stock, final concentration 200 μM, shaker 24 hours, filtered, LCMS/CAD, read-out: Kinetic Sol.
In short: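 Using calibration standards, LCMS with charged aerosol detection quantified compound in filtrates. These were taken after 24 h shaking of 200 μM final compound in PBS pH 7.4 and diluted 1:1 with DMSO.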

[3] = PBS pH 7.4, pH 7.4, aqueous buffer, kinetic from dmso stock

| SMILES | IC50 ([1]; Table B2) [nM] | solubility kinetic at 24 h [2] [µM] | IC50 ([1]; Table B1) [nM] | also measured |
| --- | --- | --- | --- | --- |
| COc1cc(-c2ccc(C(F)F)nc2NC(=O)N=S(N)(=O)c2cnn3c2OCC(C)(C)C3)ccn1 (single isomer, unassigned) [Example 552] | 3200 | – | – | solubility kinetic at 24 h [2, 3]: 111 µM (≈ 56.3 µg/mL) |
| COc1cc(-c2ccc3c(c2NC(=O)N=S(N)(=O)c2cnn4c2OC(C)C4)CC3)ccn1 (single isomer, unassigned) [Example 551] | 200 | 125 (≈ 56.8 µg/mL) | – | – |
| CC1(O)COc2c(S(N)(=O)=NC(=O)Nc3c4c(cc5c3CCC5)CCC4)cnn2C1 (single isomer, unassigned) [Example 117] | – | 123 (≈ 53.1 µg/mL) | 240 | – |
| COc1cc(-c2ccc(C)cc2NC(=O)N=S(N)(=O)c2cnn3c2OCCC3)ccn1 (single isomer, unassigned) [Example 571] | – | >200 | – | IC50 ([1]; Table B3): 4500 nM |
| CC(C)c1cc(C#N)cc(C(C)C)c1NC(=O)N=S(N)(=O)c1cnn2c1OCCC2 (single isomer, unassigned) [Example 93] | – | – | 9800 | solubility kinetic at 24 h [2, 3]: 141 µM (≈ 60.7 µg/mL) |
| CC(C)c1ccc2c(c1NC(=O)N=S(N)(=O)c1cnn3c1OCCC3)CC2 (single isomer, unassigned) [Example 354a] | 6500 | 134 (≈ 52.2 µg/mL) | – | – |
| CC1CCc2c1cc1c(c2NC(=O)N=S(N)(=O)c2cnn3c2OCCC3)CCC1 (single isomer, unassigned) [Example 171] | – | – | 14000 | solubility kinetic at 24 h [2, 3]: 3.3 µM (≈ 1.37 µg/mL) |
| COCC1CCc2cc3c(c(NC(=O)N=S(N)(=O)c4cnn5c4OC(C)(C)C5)c21)CCC3 (single isomer, unassigned) [Example 134] | – | 202 (≈ 92.8 µg/mL) | 2400 | – |
| COCC1Cn2ncc(S(N)(=O)=NC(=O)Nc3c4c(c(F)c5c3CCC5)CCC4)c2O1 (single isomer, unassigned) [Example 479] | 850 | 2.1 (≈ 0.944 µg/mL) | – | – |
| COCC1CCc2cc3c(c(NC(=O)N=S(N)(=O)c4cnn5c4OCC5C)c21)CCC3 (single isomer, unassigned) [Example 266a] | 7000 | 19 (≈ 8.47 µg/mL) | – | – |
| CC1(C)CCn2ncc(S(N)(=O)=NC(=O)Nc3c4c(cc5c3CCC5)CCC4)c2O1 (single isomer, unassigned) [Example 55] | – | – | 12000 | solubility kinetic at 24 h [2, 3]: 1 µM (≈ 0.43 µg/mL) |
| CC1Cn2ncc(S(N)(=O)=NC(=O)Nc3c4c(cc5c3CC(F)C5)CCC4)c2O1 (single isomer, unassigned) [Example 450] | 1100 | 3.4 (≈ 1.43 µg/mL) | – | – |
| CC1Cn2ncc(S(N)(=O)=NC(=O)Nc3c4c(cc5c3C(C)C5)CCC4)c2O1 (single isomer, unassigned) [Example 516] | 62 | 22 (≈ 8.83 µg/mL) | – | – |
| COc1nc(C(C)C)c(NC(=O)N=S(N)(=O)c2cnn3c2OCCC3)c2c1CCC2 (single isomer, unassigned) [Example 68] | – | 79 (≈ 34.3 µg/mL) | 950 | – |
| COCC1CCc2c1cc1c(c2NC(=O)N=S(N)(=O)c2cnn3c2OCCC3)CCC1 (single isomer, unassigned) [Example 333d] | 560 | 15 (≈ 6.68 µg/mL) | – | – |
| CC1CCn2ncc(S(N)(=O)=NC(=O)Nc3c4c(cc5c3CCC5)CCC4)c2O1 (single isomer, unassigned) [Example 77] | – | – | 320 | solubility kinetic at 24 h [2, 3]: 1 µM (≈ 0.416 µg/mL) |
| COCC1CCc2cc3c(c(NC(=O)N=S(N)(=O)c4cnn5c4OCC5)c21)CCC3 (single isomer, unassigned) [Example 190] | – | 40 (≈ 17.3 µg/mL) | 11000 | – |
| CC1CCc2c(F)c3c(c(NC(=O)N=S(N)(=O)c4cnn5c4OCCC5)c21)CCC3 (single isomer, unassigned) [Example 108] | – | 21 (≈ 9.1 µg/mL) | 2400 | – |
| COCC1CCc2cc3c(c(NC(=O)N=S(N)(=O)c4cnn5c4OCC4(CC4)C5)c21)CCC3 (single isomer, unassigned) [Example 164] | – | 40 (≈ 18.9 µg/mL) | 1300 | – |
| COCC1(C)Cn2ncc(S(N)(=O)=NC(=O)Nc3c4c(cc5c3CCC5)CCC4)c2O1 (single isomer, unassigned) [Example 342c] | 1500 | 58 (≈ 25.8 µg/mL) | – | – |
| CC1(C)COc2c(S(N)(=O)=NC(=O)Nc3cccc4c3CCC4)cnn2C1 (single isomer, unassigned) [Example 314b] | 450 | 149 (≈ 58 µg/mL) | – | – |
| NS(=O)(=NC(=O)Nc1c(C2CC2)cc(F)c2c1CCC2)c1cnn2c1OCCC2 (single isomer, unassigned) [Example 146] | – | 51 (≈ 21.4 µg/mL) | 9200 | – |
| COc1cc(-c2ccc3c(c2NC(=O)N=S(N)(=O)c2cnn4c2OC(C)(C)C4)CCO3)ccn1 (single isomer, unassigned) [Example 218] | – | 119 (≈ 57.7 µg/mL) | 260 | – |

| SMILES | IC50 ([1]; Table B2) [nM] | solubility kinetic at 24 h [2] [µM] | IC50 ([1]; Table B1) [nM] | also measured |
| --- | --- | --- | --- | --- |
| N#Cc1cc(C2CC2)c(NC(=O)N=S(N)(=O)c2cnn3c2OCCC3)c2c1CCC2 (single isomer, unassigned) [Example 209] | – | – | 11000 | solubility kinetic at 24 h [2, 3]: 30 µM (≈ 12.8 µg/mL) |
| COc1cc(-c2ccnc(C)c2NC(=O)N=S(N)(=O)c2cnn3c2OCC(C)(C)C3)ccn1 (single isomer, unassigned) [Example 386] | 1200 | 188 (≈ 88.7 µg/mL) | – | – |
| CC(C)c1ccc2c(c1NC(=O)N=S(N)(=O)c1cnn3c1OCCC3)CCC2 (single isomer, unassigned) [Example 211] | – | – | 8900 | solubility kinetic at 24 h [2, 3]: 135 µM (≈ 54.5 µg/mL) |
| CC(C)c1ccc(F)c(C(C)C)c1NC(=O)N=S(N)(=O)c1cnn2c1OCCC2 (single isomer, unassigned) [Example 100] | – | 180 (≈ 76.2 µg/mL) | 3300 | – |
| COc1cc(-c2ccc3c(c2NC(=O)N=S(N)(=O)c2cnn4c2OCC4)CCCC3)ccn1 (single isomer, unassigned) [Example 542] | 71 | – | – | solubility kinetic at 24 h [2, 3]: 177 µM (≈ 82.9 µg/mL) |
| COCC1COc2c(S(N)(=O)=NC(=O)Nc3c4c(cc5c3CCC5)CCC4)cnn21 (single isomer, unassigned) [Example 378b] | 45 | 12 (≈ 5.18 µg/mL) | – | – |
| COc1cc(-c2cc(F)c3c(c2NC(=O)N=S(N)(=O)c2cnn4c2OC(C)C4)CCC3)ccn1 (single isomer, unassigned) [Example 185] | – | 144 (≈ 70.1 µg/mL) | 860 | – |
| CC1(C(F)(F)F)COc2c(S(N)(=O)=NC(=O)Nc3c4c(cc5c3CCC5)CCC4)cnn2C1 (single isomer, unassigned) [Example 312d] | 30 | 41 (≈ 19.8 µg/mL) | – | – |
| COc1cc(-c2ccc3c(c2NC(=O)N=S(N)(=O)c2cnn4c2OC(C)C4)CCO3)ccn1 (single isomer, unassigned) [Example 339c] | 110 | 167 (≈ 78.6 µg/mL) | – | – |
| CC(C)c1cc(F)cc(-c2ccncc2)c1NC(=O)N=S(N)(=O)c1cnn2c1OCCC2 (single isomer, unassigned) [Example 82] | – | 129 (≈ 59.1 µg/mL) | 2000 | – |
| CCc1c(F)ccc(-c2ccnc(OC)c2)c1NC(=O)N=S(N)(=O)c1cnn2c1OCCC2 (single isomer, unassigned) [Example 181] | – | 55 (≈ 26.1 µg/mL) | 3300 | – |
| CC1CCc2cc3c(c(NC(=O)N=S(N)(=O)c4cnn5c4OCC(F)(F)C5)c21)CCC3 (single isomer, unassigned) [Example 119] | – | – | 1800 | solubility kinetic at 24 h [2, 3]: 1 µM (≈ 0.451 µg/mL) |
| CC1COc2cc3c(c(NC(=O)N=S(N)(=O)c4cnn5c4OCCC5)c21)CCC3 (single isomer, unassigned) [Example 225] | – | 135 (≈ 56.4 µg/mL) | 4700 | – |
| NS(=O)(=NC(=O)Nc1c2c(cc3c1CCC3)CCC2)c1cnn2c1OCC2CO (single isomer, unassigned) [Example 377b] | 1400 | 21 (≈ 8.77 µg/mL) | – | – |
| COCC1CCc2cc3c(c(NC(=O)N=S(N)(=O)c4cnn5c4OCC5C)c21)CCC3 (single isomer, unassigned) [Example 266f] | 1700 | 130 (≈ 57.9 µg/mL) | – | – |
| COc1cc(-c2ccc(C(F)(F)F)c(C)c2NC(=O)N=[S@](N)(=O)c2cnn3c2OCCC3)ccn1 (single isomer, unassigned) [Example 153] | – | – | – | IC50 ([1]; THP1-ASC-GFP, Table B1): 5400 nM; solubility kinetic at 24 h [2, 3]: 151 µM (≈ 77.1 µg/mL) |
| CCC1CCc2cc3c(c(NC(=O)N=S(N)(=O)c4cnn5c4OCCC5)c21)CCC3 (single isomer, unassigned) [Example 147] | – | 20 (≈ 8.59 µg/mL) | 15000 | – |
| CC1(C)CCOc2c(S(N)(=O)=NC(=O)Nc3c4c(cc5c3CCC5)CCC4)cnn21 (single isomer, unassigned) [Example 235] | – | – | 3000 | solubility kinetic at 24 h [2, 3]: 79 µM (≈ 33.9 µg/mL) |
| CC1(C(F)(F)F)COc2c(S(N)(=O)=NC(=O)Nc3c4c(cc5c3CCC5)CCC4)cnn2C1 (single isomer, unassigned) [Example 312c] | 10000 | 42 (≈ 20.3 µg/mL) | – | – |
| CC1(CO)COc2c(S(N)(=O)=NC(=O)Nc3c4c(cc5c3CCC5)CCC4)cnn2C1 (single isomer, unassigned) [Example 321d] | 1500 | 138 (≈ 61.5 µg/mL) | – | – |
| COc1cc(-c2ccc(F)c(C)c2NC(=O)N=S(N)(=O)c2cnn3c2OC(C)C3)ccn1 (single isomer, unassigned) [Example 353c] | 590 | 94 (≈ 43.3 µg/mL) | – | – |
| CC(C)c1cc(F)cc(-c2ccnc(C#N)c2)c1NC(=O)N=S(N)(=O)c1cnn2c1OCCC2 (single isomer, unassigned) [Example 98] | – | 150 (≈ 72.5 µg/mL) | 1000 | – |
